Source: PMC9757636, “The effectiveness of newly synthesized quaternary ammonium salts differing in chain length and type of counterion against priority human pathogens” (Scientific Reports, 2022)
Marks after values point to notes of the source that are not given here.

What was measured:
[1] = system: Salmonella typhimurium TA98; assay: Mutagenicity (Ames test); format: cell-based; conditions: for Number of colonies: ± SD
Description: (§1) Two reference strains of Salmonella Typhimurium TA98 and Salmonella Typhimurium TA100, deficient in histidine synthesis, were used for this study according to the method proposed by Ames et al. with modifications. […] The mixture was mixed and poured onto a Davis minimal medium plate. The mixture without the test compound was used as a negative control. The positive control was a mixture of bacterial culture, biotin-histidine solution, and sodium azide (at a concentration of 15 μg/mL for strain TA100) or acriflavine (at a concentration of 100 μg/mL for strain TA98). Plates were incubated for 48 h at 37 °C, and then colonies were counted. The mutagenicity ratio (MR), the ratio of the number of revertants grown in the presence of the test compound to the number of spontaneously occurring revertants (negative control), was calculated. A mutagenic ratio equal to or greater than 1.7 indicates the mutagenic potential of the tested compounds. The study was performed in three times.

[2] = system: Salmonella typhimurium TA100; assay: Mutagenicity (Ames test); format: cell-based; conditions: for Number of colonies: ± SD
Description: as §1

S. aureus ATCC 6538 = assay: MIC/MBC microdilution; format: cell-based, Staphylococcus aureus; conditions: S. aureus ATCC 6538; for Minimal bactericidal concentration (*MBC): 99.9% reduction; for Minimal inhibitory concentration (MIC): 24 h, 37 °C, >90% growth inhibition
Description: (§2) The minimum inhibitory concentration (MIC) of the tested monomeric QAS was performed using the microdilution method according to CLSI recommendation (M27-A3). Concentrations from 10 to 1280 µM were analyzed. Strains were incubated with or without compounds (growth control) for 24 h at 37 °C. Three independent replicates were performed. The MIC value was determined spectrophotometrically and the concentration that inhibited more than 90% of growth was determined. Optical density was measured at λ = 590 nm using a 96-well microplate reader (Bio-Rad Universal Hood II).
(§3) To determine the minimum bactericidal concentration (MBC), 10 µL of bacterial suspension incubated with monomeric QAS (MIC concentration and two times higher) was transferred to plates with LB (1% tryptone, 1% yeast extract, 0.5% NaCl) medium. […] The concentration that reduced 99.9% of microbial growth was determined as MBC[54].

S. aureus MRSA R98 = assay: MIC/MBC microdilution; format: cell-based, Staphylococcus aureus; conditions: for Minimal bactericidal concentration (*MBC): 99.9% reduction; for Minimal inhibitory concentration (MIC): 24 h, 37 °C, >90% growth inhibition
Description: as §2, §3

[3] = Critical micelle concentration by conductometric measurements; format: physicochemical; conditions: aqueous solution, 25 °C
Description: Values of critical micelle concentrations (CMC) of cationic surfactants were measured conductrometrically. N5721 conductometer (Tel-Eko Projekt sp z o.o., Poland), equipped with N5981 probe, was calibrated using 0.1 M, 0.01 M and 0.001 M KCl aqueous solutions (conductivities equal to 1.287 S/m, 0.141 S/m and 0.0147 S/m, respectively) and used without temperature compensation mode (constant temperature 25 °C was kept during all calibration procedures and measurements). Values of specific conductivities of at least 15 different concentrations for each surfactant were measured and plotted versus concentration; the discontinuity point was used to determine critical micelle concentration.

P. aeruginosa ATCC 27853 = assay: MIC/MBC microdilution; format: cell-based, Pseudomonas aeruginosa; conditions: P. aeruginosa ATCC 27853; for Minimal bactericidal concentration (*MBC): 99.9% reduction; for Minimal inhibitory concentration (MIC): 24 h, 37 °C, >90% growth inhibition
Description: as §2, §3

P. aeruginosa PAO1 [4] = assay: MIC/MBC microdilution; format: cell-based, Pseudomonas aeruginosa; conditions: for Minimal bactericidal concentration (*MBC): 99.9% reduction; for Minimal inhibitory concentration (MIC): 24 h, 37 °C, >90% growth inhibition
Description: as §2, §3

S. epidermidis SI8 = assay: MIC/MBC microdilution; format: cell-based, Staphylococcus epidermidis; conditions: for Minimal bactericidal concentration (*MBC): 99.9% reduction; for Minimal inhibitory concentration (MIC): 24 h, 37 °C, >90% growth inhibition
Description: as §2, §3

S. epidermidis B374 [5] = assay: MIC/MBC microdilution; format: cell-based, Staphylococcus epidermidis; conditions: S. epidermidis B374
Description: as §2, §3

[6] = system: S. epidermidis ATCC 35984; assay: MIC/MBC microdilution; format: cell-based, Staphylococcus epidermidis; conditions: for Minimal bactericidal concentration (*MBC): 99.9% reduction; for Minimal inhibitory concentration (MIC): 24 h, 37 °C, >90% growth inhibition
Description: as §2, §3

E. coli ATCC 11229 = assay: MIC/MBC microdilution; format: cell-based, Escherichia coli; conditions: E. coli ATCC 11229; for Minimal bactericidal concentration (*MBC): 99.9% reduction; for Minimal inhibitory concentration (MIC): 24 h, 37 °C, >90% growth inhibition
Description: as §2, §3

E. coli H64 = assay: MIC/MBC microdilution; format: cell-based, Escherichia coli; conditions: E. coli H64; for Minimal bactericidal concentration (*MBC): 99.9% reduction
Description: as §2, §3

P. aeruginosa PAO1 [7] = assay: Adhesion to glass; format: cell-based, Pseudomonas aeruginosa; conditions: concentration not given
S. epidermidis B374 [8] = assay: Adhesion to polystyrene plate; format: cell-based, Staphylococcus epidermidis; conditions: 1280 µM
Description: Adhesion analysis to polystyrene surfaces was determined according to the method of Rodrigues et al. with modifications. Polystyrene 96-well plates were incubated with the respective compound concentrations (10–1280 µM) for 4 h at 37 °C with 100 rpm shaking. The plates were then washed with miliQ and inoculated with 100 µL of bacterial suspension (OD = 0.4–0.6). Plates were incubated for 6 h at 37 °C with 100 rpm shaking. Wells were rinsed and fixed for 20 min at 60 °C. They were then […] with 0.1% crystal violet solution for 5 min. The wells were washed with miliQ until the unfixed dye was completely eluted. The absorbance at λ = 590 nm was measured using a reader (Bio-Rad Universal Hood II). The positive control was a surface not treated with QAS. Three independent trials were performed.

[9] = 24 h, 37 °C, >90% growth inhibition, read-out: Minimal inhibitory concentration (MIC)
[10] = 24 h, 37 °C, >90% growth inhibition

SMILES	Mutagenicity index ([1]; ¼ MIC)	Number of colonies ([1]; ¼ MIC)	Mutagenicity index ([1]; ½ MIC)	Mutagenicity index ([2]; ¼ MIC)	Number of colonies ([2]; ¼ MIC)	Mutagenicity index ([2]; ½ MIC)	Number of colonies ([2]; ½ MIC)	Minimal bactericidal concentration (*MBC) (S. aureus ATCC 6538)	Minimal inhibitory concentration (MIC) (S. aureus ATCC 6538)	Minimal bactericidal concentration (*MBC) (S. aureus MRSA R98)	Minimal inhibitory concentration (MIC) (S. aureus MRSA R98)	CMC [3] [mol/L]	Minimal bactericidal concentration (*MBC) (P. aeruginosa ATCC 27853)	Minimal inhibitory concentration (MIC) (P. aeruginosa ATCC 27853)	Minimal bactericidal concentration (*MBC) (P. aeruginosa PAO1 [4])	Minimal inhibitory concentration (MIC) (P. aeruginosa PAO1 [4])	Minimal bactericidal concentration (*MBC) (S. epidermidis SI8)	Minimal inhibitory concentration (MIC) (S. epidermidis SI8)	Minimal bactericidal concentration (*MBC) [6]	Minimal inhibitory concentration (MIC) [6]	also measured
CCCCCCCCCCCCCCN(C)CCC[N+](C)(C)C.COC(=O)[O-] [MeC14, [(3-tetradecyilomethyloamine)propyl] trimethylammonium methylcarbonate]	0.57	13 ± 2.8	0.95	1.17	329.5 ± 20.5	1.10	310 ± 17.3	80 *80 µM	80 *80 µM	80 *80 µM	80 *80 µM	0.0041	1280 * > 1280 µM	1280 * > 1280 µM	> 1280 * > 1280 µM	> 1280 * > 1280 µM	40 *40 µM	40 *40 µM	40 *40 µM	40 *40 µM	Number of colonies ([1]; ½ MIC): 21.7 ± 3.5; MBC (S. epidermidis B374 [5]; 99.9% reduction, read-out: Minimal bactericidal concentration (*MBC)): 160 µM; MIC (S. epidermidis B374 [5]; [9]): 80 µM; Minimal bactericidal concentration (*MBC) (E. coli ATCC 11229): 320 *320 µM; Minimal inhibitory concentration (MIC) (E. coli ATCC 11229): 320 *320 µM; Minimal bactericidal concentration (*MBC) (E. coli H64): 80 *80 µM; Minimal inhibitory concentration (MIC) (E. coli H64; [10]): 80 *80 µM; MIC (E. coli H64; [9]): 80 µM
CCCCCCCCCCCC(=O)N(C)CCC[N+](C)(C)C.[Br-] [BrC12]	0.78	20 ± 1.4	1.98	1.41	179.3 ± 13.9	1.15	146 ± 18.5	1280 *1280 µM	1280 *1280 µM	640 *640 µM	640 *640 µM	0.0086	1280 *1280 µM	1280 *1280 µM	> 1280 * > 1280 µM	> 1280 * > 1280 µM	640 *640 µM	640 *640 µM	640 *640 µM	640 *640 µM	mutagenicity index (MR) ([1]; reading frame shift type mutation, MR >= 1.7 indicates mutagenic potential): above 1.7; Number of colonies ([1]; ½ MIC): 50.5 ± 6.4; mutagenicity index (MR) ([2]; base pair substitution type mutations, MR >= 1.7 indicates mutagenic potential): < 1.7; Minimal bactericidal concentration (*MBC) (S. epidermidis B374 [5]; 99.9% reduction): 640 *640 µM; Minimal inhibitory concentration (MIC) (S. epidermidis B374 [5]; [10]): 640 *640 µM; Minimal bactericidal concentration (*MBC) (E. coli ATCC 11229): 1280 *1280 µM; Minimal inhibitory concentration (MIC) (E. coli ATCC 11229): 1280 *1280 µM; Minimal bactericidal concentration (*MBC) (E. coli H64): 1280 *1280 µM; Minimal inhibitory concentration (MIC) (E. coli H64; [10]): 1280 *1280 µM; reduction of adhesion to glass (P. aeruginosa PAO1 [7]): approximately 20%
CCCCCCCCCCCCCC(=O)N(C)CCC[N+](C)(C)C.[Br-] [BrC14]	0.73	18.7 ± 6.4	0.84	1.24	158 ± 19.8	1.16	147.5 ± 21.9	320 *320 µM	320 *320 µM	320 *320 µM	320 *320 µM	0.0025	1280 *1280 µM	1280 *1280 µM	> 1280 * > 1280 µM	> 1280 * > 1280 µM	160 *160 µM	160 *160 µM	160 *160 µM	160 *160 µM	Minimal bactericidal concentration (*MBC) (S. epidermidis B374 [5]; 99.9% reduction): 640 * > 640 µM; Minimal inhibitory concentration (MIC) (S. epidermidis B374 [5]; [10]): 640 * > 640 µM; Minimal bactericidal concentration (*MBC) (E. coli ATCC 11229): > 1280 * > 1280 µM; Minimal inhibitory concentration (MIC) (E. coli ATCC 11229): > 1280 * > 1280 µM; Minimal bactericidal concentration (*MBC) (E. coli H64): 320 *320 µM; Minimal inhibitory concentration (MIC) (E. coli H64; [10]): 320 *320 µM; reduction of adhesion to glass (P. aeruginosa PAO1 [7]): approximately 20%; reduced adhesion to polystyrene (S. epidermidis B374 [8]): 82%
